Test results: BindingDB's records for doi:10.1021/jm011081s (The Institute of Cancer Research, 2002)

Test: Growth inhibitory activity against mouse lymphoblastoid L1210TS cell line was determined as inhibition of thymidylate synthase

- IC50: > 50 µM
Structure (SMILES): C#CCN(Cc1cc2c(=O)n(C)c(CN(CC)CC)nc2cc1Cl)c1ccc(C(=O)NCc2cccnc2)cc1 [4-[(7-Chloro-2-diethylaminomethyl-3-methyl-4-oxo-3,4-dihydro-quinazolin-6-ylmethyl)-prop-2-ynyl-amino]-N-pyridin-3-ylmethyl-benzamide]
